Experimental data: patent US7507766B2, “Treatment of cancers” (Pharma Mar, S.A., priority 2000, dated 2009)
“Also recorded” adds a separate entry of the source. Starred links: 1 amine or outer side, 2 acyl side, 3 side chain; linkers in the order of their positions; H or OH if unused. Positions of bridges follow the written chain, without caps; N, C: chain ends. Non-standard residues stand in square brackets, D forms with d. Residues, ends and D or L forms follow the SMILES beside them. *: point of attachment. X1 = CC[C@H](C)[C@@H](N[*:1])[C@@H](O)CC(=O)O[C@H](C(=O)[C@H](C)C(=O)[*:2])C(C)C; NMeY = CN[C@@H](Cc1ccc(O)cc1)C(=O)O; dNMeL = CN[C@H](CC(C)C)C(=O)O; Pyruvoyl = CC(=O)C(=O)*

How the values were obtained:
[1] = Phase I studies: aplidine myotoxicity and L-carnitine as myoprotector; assay type: in vivo, human
Procedure: More generally, the invention involves the use of a muscle protector in conjunction with aplidine therapy. We have found in particular that carnitine is beneficial in treating myotoxicity that is associated with chemotherapy with the experimental drug aplidine. […] When L-carnitine 4.5 g/day was added to the therapy (at doses of 1.5 g three times daily), or 0.1 mg/kg (at doses of 0.033 mg 3 times daily) patients were able to tolerate doses of aplidine up to 6000 mcg/m 2 every second week. […] Therefore, muscle protectors such as L-carnitine is a useful myoprotector for patients being treated with aplidine or an aplidine analogue.
L-carnitine at a dose of 1.5 grams 3 times per day or 0.033 g/kg 3 times per day was started in all patients of study APL-A-003-98.

[2] = system: panel of 25 human tumor cell lines; assay: tumor protection by L-carnitine in panel of tumor cell lines; assay type: cell-based; conditions: initial results
Procedure: The possibility of tumor protection by L-carnitine was evaluated using a panel of 25 human tumor cell lines.

[3] = Phase I study, 24 h continuous infusion every other week: toxicities; assay type: in vivo, human
Procedure: (§1) Definitions for patient toxicities are adopted from WHO Criteria and the responses determined following WHO Response Criteria.
(§2) A phase I and pharmacokinetic study of aplidine, given as a 24 h continuous infusion every other week in patients with solid tumours and non-Hodgkin lymphoma

[4] = Phase I clinical studies: MTD, DLT and RD per dosing regime; assay type: in vivo, human
Description: The Recommended Dose (RD) is the highest dose which can be safely administered to a patient producing tolerable, manageable and reversibly toxicity according to the Common Toxicity Criteria established by the National Cancer Institute, (USA) with no more than […] patients presenting any dose limiting toxicities (DLT). Guidelines for cancer therapy frequently call for administration of chemotherapeutic agents at the highest safe dose at which toxicity is manageable in order to achieve maximum efficacy (DeVita, V. T. Jr., Hellman, S. and Rosenberg, S. A., Cancer: Principles and Practice of Oncology, 3rd ed., 1989, Lipincott, Philadelphia).
DLTs for aplidine using this method of treatment were determined in clinical studies. These studies established a recommended dose level for differing kinds of dosing protocols.

[5] = system: human colon cancer cell line, HT-29; conditions: cited from earlier work
human cancer xenografts = conditions: cited from earlier work
human bladder cancer = human bladder cancer animal models; assay type: in vivo; conditions: complete remissions in some animal models
VEGF protein = assay: production of VEGF protein by tumour cells; assay type: cell-based
cell cycle = conditions: cited from earlier work
CT-2 = conditions: cited from earlier work
ornithine decarboxylase = target: T1, ornithine decarboxylase (Homo sapiens, UniProt P11926); conditions: all three cell lines; cited from earlier work
T1 construct: endogenous in cells; host or cells: CT-1, CT-2 and HT-29 colon carcinoma cell lines
T1 sequence (P11926 1-461): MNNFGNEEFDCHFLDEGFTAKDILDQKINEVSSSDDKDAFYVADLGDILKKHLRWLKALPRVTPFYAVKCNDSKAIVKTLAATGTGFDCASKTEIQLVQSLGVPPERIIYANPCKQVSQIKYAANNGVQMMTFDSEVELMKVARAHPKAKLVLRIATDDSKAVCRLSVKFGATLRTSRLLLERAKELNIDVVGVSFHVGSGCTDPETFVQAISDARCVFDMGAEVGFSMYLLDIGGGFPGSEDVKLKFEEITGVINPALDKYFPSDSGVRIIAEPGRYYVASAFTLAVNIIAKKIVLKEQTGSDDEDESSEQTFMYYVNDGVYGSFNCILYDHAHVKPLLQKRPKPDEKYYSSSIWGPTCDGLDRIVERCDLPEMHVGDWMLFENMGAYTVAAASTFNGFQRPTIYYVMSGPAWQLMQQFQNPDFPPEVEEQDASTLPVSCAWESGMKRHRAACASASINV

[6] = system: Non-small cell lung cancer, breast cancer and melanoma cell lines; conditions: cited from earlier work
P388 leukaemia = conditions: mice; cited from earlier work
lewis lung carcinomas = conditions: mouse, in vivo; cited from earlier work
MCF-7 = conditions: aplidine 50 mmol/L; cited from earlier work
MDA-MB231 = conditions: aplidine; cited from earlier work
[7] = system: gene (FLT1) encoding the receptor of the Vascular Endothelial Growth Factor (VEGF); assay: expression of the gene FLT1; assay type: cell-based
CT-1 = conditions: cited from earlier work
[8] = Phase I study, 24 h continuous infusion every other week: pharmacokinetics; assay type: in vivo, human
Procedure: as §2

B16 melanoma = conditions: mice; cited from earlier work
spermidine and spermine = conditions: cited from earlier work
[9] = stability of aplidine solution and lyophilised dosage form; conditions: heat and light stress testing
Procedure: In a currently preferred embodiment freeze-drying was performed from a […] solution of aplidine in 40% (v/v) tert-butanol in Water for Injection (Wfl) containing 25 mg/mL D-mannitol as bulking agent.

[10] = system: solid tumours and non-Hodgkin lymphoma; assay: clinical trials: antitumour responses in patients; assay type: in vivo, human
Procedure: as §1, §2

[11] = dose level 200 mcg/m^2/2 wks, of 3 patients
[12] = dose level 400 mcg/m^2/2 wks, of 3 patients
[13] = dose level 800 mcg/m^2/2 wks, of 3 patients
[14] = dose level 1600 mcg/m^2/2 wks, of 6 patients
[15] = dose level 3200 mcg/m^2/2 wks, of 3 patients
[16] = dose level 4000 mcg/m^2/2 wks, of 3 patients
[17] = dose level 5000 mcg/m^2/2 wks, of 3 patients
[18] = dose level 6000 mcg/m^2/2 wks, of 12 patients
[19] = dose level 7000 mcg/m^2/2 wks, of 7 patients

## C[N+](C)(C)C[C@H](O)CC(=O)[O-] [L-carnitine, reference compound]
[1]; human, in vivo
  increase of aplidine RD by L-carnitine prophylaxis: 40%
  only toxicity reported for L-carnitine: grade 1 abdominal discomfort and diarrhea
[1]; in vivo
  L-carnitine dose below which it should not be decreased: ≥ 3.5 grams per day
  duration of beneficial effect (normal creatine kinase values): at least 13 weeks
  outcome in 11 patients receiving L-carnitine prophylaxis from the beginning: just an asymptomatic G1 increase in CK
  tolerability of L-carnitine: well tolerated
[2]
  effect of L-carnitine on the antitumor activity of aplidine: lack of effect

## CC[C@H](C)[C@H]1NC(=O)[C@@H](NC(=O)[C@@H](CC(C)C)N(C)C(=O)[C@@H]2CCCN2C(=O)C(C)=O)[C@@H](C)OC(=O)[C@H](Cc2ccc(OC)cc2)N(C)C(=O)[C@@H]2CCCN2C(=O)[C@H](CC(C)C)NC(=O)[C@@H](C)C(=O)[C@H](C(C)C)OC(=O)C[C@@H]1O [aplidine] (Pyruvoyl-P[dNMeL]T[X1]LP[NMeY](Me); ester 3-C)
[3]; 2 patients
  muscle biopsies, E/M finding: partial disappearance of thick filaments of myosin
[3]; 6000 mcg/m^2
  dose limiting toxicity (muscular changes), patients: 1/9
[3]; Pat #27
  time to recovery of toxicity after treatment discontinuation: ≤ 3 weeks
[3]; [11]
  Nausea/vomiting G2, no. patients: 2
  Transaminitis G2, no. patients: 1
[3]; [12]
  Asthenia G2, no. patients: 2
  Hypertension G2, no. patients: 1
  Nausea/vomiting G2, no. patients: 1
[3]; [13]
  Flushing G1, no. patients: 1
  Muscle cramps G1 + G2, no. patients: 2
[3]; [14]
  Asthenia G2, no. patients: 2
  Asthenia G3, no. patients: 1
  Muscle cramps G1 + G2, no. patients: 1
  Nausea/vomiting G2, no. patients: 4
  Transaminitis G3, no. patients: (1)
[3]; [15]
  Asthenia G2, no. patients: 1
  Flushing G1, no. patients: 1
  Muscle cramps G1 + G2, no. patients: 2
  Muscle pain G2, no. patients: (1)
  Nausea/vomiting G3, no. patients: (1)
[3]; [16]
  Asthenia G2, no. patients: 1
  Flushing G1, no. patients: 1
  Muscle cramps G1 + G2, no. patients: 2
  Muscle pain G1, no. patients: 2
  Nausea/vomiting G2, no. patients: 2
  Pain central catheter G2, no. patients: 2
[3]; [17]
  Asthenia G3, no. patients: (1)
  CPK elevation G3, no. patients: (1) [1]
  CPK elevation G4, no. patients: (1) [1]
  Muscle cramps G1 + G2, no. patients: 2
  Muscle pain G1, no. patients: 1
  Muscle weakness G1, no. patients: 1
  Nausea/vomiting G2, no. patients: 1
  Transaminitis G2, no. patients: 1
[3]; [18]
  Asthenia G2, no. patients: 6
  CPK elevation G2, no. patients: 1(1)
  CPK elevation G3, no. patients: 1(1)
  Muscle cramps G1 + G2, no. patients: 1
  Muscle pain G1, no. patients: 1
  Muscle pain G2, no. patients: 2
  Muscle weakness G1, no. patients: 1(1)
  Muscle weakness G2, no. patients: 1(1)
  Nausea/vomiting G2, no. patients: 2
[3]; [19]
  Asthenia G2, no. patients: 2
  CPK elevation G2, no. patients: 1
  Flushing G1, no. patients: 1
  Muscle pain G1, no. patients: 1
  Nausea/vomiting G2, no. patients: 1
  Neutrophenia G4, no. patients: 1
  Transaminitis G2, no. patients: 1
[4]; 1-hour infusion for 5 consecutive days every 3 weeks
  dose-limiting toxicity: Muscular/long; also recorded: lasting emesis
[4]; 4 Phase I trials
  dose-limiting factor: skeletal muscle toxicity
[4]; 24 hour infusion every 2 weeks, L-carnitine daily
  dose-limiting toxicity: Flu-like
[4]; weekly 24 hour infusion for 3 weeks, 1 week rest
  dose-limiting toxicity: Muscular/; also recorded: hepatic
[4]; with L-carnitine 0.1 g/kg/day in 3 portions, for Phase II studies
  RD of aplidine: 7 mg/m^2
[5]
  cytotoxic activity: dose-dependent cytotoxic activity
Human cancer xenografts; 2.1 mg/kg
  remissions: near complete remissions in some animals
  treated/control (T/C) tumour ratio: 9%
Human cancer xenografts; mice
  maximum tolerated dose: 2.1 mg/kg
Human bladder cancer
  activity on human bladder cancer: exceedingly high activity
VEGF protein
  production of VEGF protein by tumour cells: severely inhibit production
Cell cycle
  cell cycle perturbations: did not induce any apparent cell cycle pertubations
CT-2
  cytotoxic activity: dose-dependent cytotoxic activity
CT-2; most proliferative line
  relative sensitivity among CT-1, CT-2, HT-29: most sensitive
Ornithine decarboxylase
  ornithine decarboxylase activity: decreased ornithine decarboxylase activity
[6]; continuous exposure to low concentrations, non-Hodgkin's lymphoma, melanoma, breast, ovarian, non-small cell lung cancers
  growth of tumour cell lines: inhibited the growth
[6]; continuous exposure
  concentration at which cell lines were sensitive: >= 0.001 micromol/L
P388 leukaemia
  activity against implanted P388 leukaemia: active
  optimal dose: 160 micro/kg
Lewis lung carcinomas
  activity in SC implanted lewis lung carcinomas: active
MCF-7
  growth inhibition: 47%
MDA-MB231
  growth inhibition: 17%
[1]; 24-hour infusion, 4500 mcg/m^2 every week, then 6000 mcg/m^2 every second week
  toxicity in some subjects without L-carnitine: muscular and skeletal toxicity
[1]; 24 h every other week infusion study
  new dose-limiting factor under L-carnitine prophylaxis: non-muscular
[1]; biopsied patients
  electron microscopy of muscle, most important change: disappearance of thick filaments
[1]; every 2 weeks
  dose from which muscle cramps occur (mild cases): ≥ 3200 mcg/m2
[1]; in vivo
  onset of myotoxicity, number of infusions, median: 4 infusions
  relationship of myotoxicity to exposure: related to prolonged exposure rather than high exposure or concentrations
[1]; more severe cases
  reversible increases in creatin-kinase (CK), grade reached: ≤ 3 grade
[7]
  expression of FLT1 gene: inhibits expression
CT-1
  cytotoxic activity: dose-dependent cytotoxic activity
[8]; 24 h infusion
  t ½ in the 3 patients with clear muscular toxicity: > 44 h
[8]; human, in vivo
  coefficient of variation of CL (interpatient): 62%
[8]; low sample size
  PK profile: dose-linear
[8]; preliminary compartmental analysis, 24 h infusion
  terminal phase median half-life: 25.8 h
[8]; preliminary compartmental analysis, first-order 2-compartment model
  initial phase median half-life: 0.64 h
[8]; quartiles 15.7-35.0
  t ½, median: 23.8 h
[8]; quartiles 192-415
  plasma CL, median: 252 mL/min/m^2
[8]; quartiles 274-638
  Vss, median: 413 L/m^2
B16 melanoma
  activity against implanted B16 melanoma: active
  optimal dose: 160 micro/kg
Spermidine and spermine
  spermidine and spermine in treated cells: significant increase
[9]
  degradation in solution: substantial degradation
[10]; clinical trials
  responses in cancer patients: Responses in cancer patients have been observed
[10]; patients with NHL and renal carcinoma
  antitumour activity in patients: Antitumour activity has been also noted
